Results on 29 compounds are retold here after PubChem BioAssay (NCI).

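Following 48 hours of exposure in 96-well plates, responses at five concentrations were used to interpolate endpoints linearly. Definition used: TGI = concentration required for complete inhibition of growth.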 Bounds are passed on as bounds.

One test has as its system NCI-H23 lung. In words: NCI tumour cell line growth inhibition, 48 h.
`Cc1nnc(Nc2ccccc2)o1` yielded a TGI of over 100 µM.

The test system of the next test is NCI/ADR-RES ovarian. Put plainly: NCI tumour cell line growth inhibition, 48 h.
As for `NC(C(F)(F)F)(C(F)(F)F)P(=O)(Cc1ccccc1)Cc1ccccc1`, the TGI is over 100 µM.
On to `S=C(N/N=C\C=N/NC(=S)N1CCCCC1)N1CCCCC1`, for which the TGI is over 22.3 µM.
On the same count and under the same terms, the same measure for `CN1C(=O)C2C(=O)N(Cc3ccccc3)CC(=O)N2c2cccnc21` (stereo not drawn): over 100 µM; for `Cc1cc(N(CCC#N)CCC#N)ccc1/C=N/NC(=O)c1cc(Cl)ccc1O`: over 100 µM; for `Cc1ccc(C(=O)Nc2ccc(CP(=O)(O)O)cc2CP(=O)(O)O)cc1NC(=O)c1cccc(N)c1`: over 100 µM.
`CN(C)/N=N/c1nc2c(c(=O)n(C)c(=O)n2C)n1C` yielded a TGI of over 100 µM.
Consider `COc1ccccc1N/C(=C\C(=O)C(=O)NC12CC3CC(CC(C3)C1)C2)c1ccccc1`, for which the TGI was over 10 µM.
As to `Nc1cc(CO)cc(Nc2nc3ccc(Cl)cc3c3[nH]c4ccccc4c23)c1`, the TGI came to 42.5 µM.
With `CCN1CC2=C(NC(=S)NC2c2ccc(Cl)cc2)/C(=C/c2ccc(Cl)cc2)C1` (stereo not drawn), the TGI was over 100 µM.
Still for that read-out and setting: under `CN1C(=O)N(c2ccccc2)C2(CCN(CC3COc4ccccc4O3)CC2)C1=O` (stereo not drawn) stands over 100 µM; under `NC(=O)N/N=C(\Cc1nc2ccc(Cl)cc2[nH]c1=O)C(=O)Nc1ccc(Cl)cc1Cl`, over 100 µM; under `O=c1nc(N2CCN(c3ccccc3)CC2)ccn1C1OC(CO)C(O)C1O` (stereo not drawn), over 100 µM.
Still for that read-out and setting: the same measure for `OCCCCCNc1c2ccccc2nc2ccccc12`: over 57.2 µM.
With `O=C(/C=C/c1ccc(O)c([N+](=O)[O-])c1)CC(=O)/C=C/c1ccc(O)c([N+](=O)[O-])c1`, the TGI is over 100 µM.
In turn, `CC(C)=CCOC(=O)C(C)=[N+]=[N-]` came in with a TGI of over 100 µM.
The same measure, in the same setting: the same measure for `CC(C)(N=NC(C)(C)C(=O)NCCO)C(=O)NCCO`: over 100 µM.
With `CC1=C(O)C(=O)[C@@H]2O[C@@H]2C1=O`, the TGI was found to be 44.9 µM.
`CC(C)c1ccc2[nH]c(O)c(-c3[nH]c4ccccc4c3N=O)c2c1` showed a TGI of 22 µM.
Compound `CCCCCCCCCCCCCCCCCCNc1ccn(C2OC(COP(=O)(O)OCC3OC(n4ccc(NC(=O)CCCCCCCCCCCCCCCCC)nc4=O)C(OC(C)=O)C3OC(C)=O)C(OC(C)=O)C2OC(C)=O)c(=O)n1` (stereo not drawn) returned a TGI of over 100 µM.
On the same count and under the same terms, under `Cc1nc2c(sc(=S)n2-c2ccccc2)c2nc3ncccc3n12` stands over 100 µM.
For `Cc1ccc(-c2c(C#N)c(-c3ccccc3)n(NS(=O)(=O)c3ccccc3)c(=O)c2C#N)cc1`, the TGI is over 100 µM.
In the case of `COc1ccc(N2C(=O)C3c4[nH]c5ccc(OCc6ccccc6)cc5c4C4CCC(C(C)(C)C)CC4C3C2=O)cc1` (stereo not drawn), the TGI is over 100 µM.
In the case of `Cc1nnc(Nc2ccccc2)o1`, the TGI was over 100 µM.

A further test relates to OVCAR-4 ovarian. Put plainly: NCI tumour cell line growth inhibition, 48 h.
The compound `NC(C(F)(F)F)(C(F)(F)F)P(=O)(Cc1ccccc1)Cc1ccccc1` yielded a TGI of over 100 µM.
In turn, `CN1C(=O)C2C(=O)N(Cc3ccccc3)CC(=O)N2c2cccnc21` (stereo not drawn) registered a TGI of over 100 µM.
`Cc1cc(N(CCC#N)CCC#N)ccc1/C=N/NC(=O)c1cc(Cl)ccc1O` came in with a TGI of over 100 µM.
Regarding `Cc1ccc(C(=O)Nc2ccc(CP(=O)(O)O)cc2CP(=O)(O)O)cc1NC(=O)c1cccc(N)c1`, the TGI is over 100 µM.
On to `CN(C)/N=N/c1nc2c(c(=O)n(C)c(=O)n2C)n1C`, for which the TGI was over 100 µM.
For the compound `COc1ccccc1N/C(=C\C(=O)C(=O)NC12CC3CC(CC(C3)C1)C2)c1ccccc1`, the TGI was over 10 µM.
Same read-out and setting: the same measure for `CCN1CC2=C(NC(=S)NC2c2ccc(Cl)cc2)/C(=C/c2ccc(Cl)cc2)C1` (stereo not drawn): over 100 µM.
The same measure, in the same setting: the same measure for `CN1C(=O)N(c2ccccc2)C2(CCN(CC3COc4ccccc4O3)CC2)C1=O` (stereo not drawn): over 100 µM; for `CCOC(=O)C1Cc2[nH]c3ccccc3c2C(C)C1C` (stereo not drawn): 30.9 µM.
Still for that read-out and setting: under `NC(=O)N/N=C(\Cc1nc2ccc(Cl)cc2[nH]c1=O)C(=O)Nc1ccc(Cl)cc1Cl` stands over 100 µM; under `O=c1nc(N2CCN(c3ccccc3)CC2)ccn1C1OC(CO)C(O)C1O` (stereo not drawn), over 100 µM; under `OCCCCCNc1c2ccccc2nc2ccccc12`, 11.4 µM.
The compound `O=C(/C=C/c1ccc(O)c([N+](=O)[O-])c1)CC(=O)/C=C/c1ccc(O)c([N+](=O)[O-])c1` showed a TGI of over 100 µM.
`CC(C)=CCOC(=O)C(C)=[N+]=[N-]` gave a TGI of over 100 µM.
The same measure, in the same setting: the same measure for `Cn1cc2ccccc2c1-c1nc(N)nc(F)n1`: over 100 µM.
Consider `CC(C)(N=NC(C)(C)C(=O)NCCO)C(=O)NCCO`, for which the TGI was over 100 µM.
Same read-out and setting: under `c1ccc2c(c1)OC(N1CCCC1)c1cnc(N3CCCC3)nc1-2` (stereo not drawn) stands over 100 µM.
Same read-out and setting: under `CC1=C(O)C(=O)[C@@H]2O[C@@H]2C1=O` stands 28.5 µM.
Still for that read-out and setting: under `CC(C)c1ccc2[nH]c(O)c(-c3[nH]c4ccccc4c3N=O)c2c1` stands 17.6 µM.
`CCCCCCCCCCCCCCCCCCNc1ccn(C2OC(COP(=O)(O)OCC3OC(n4ccc(NC(=O)CCCCCCCCCCCCCCCCC)nc4=O)C(OC(C)=O)C3OC(C)=O)C(OC(C)=O)C2OC(C)=O)c(=O)n1` (stereo not drawn) had a TGI of over 100 µM.
On to `Cc1ccc(-c2c(C#N)c(-c3ccccc3)n(NS(=O)(=O)c3ccccc3)c(=O)c2C#N)cc1`, for which the TGI was over 100 µM.
Still for that read-out and setting: under `COc1ccc(N2C(=O)C3c4[nH]c5ccc(OCc6ccccc6)cc5c4C4CCC(C(C)(C)C)CC4C3C2=O)cc1` (stereo not drawn) stands 59.4 µM.
Take `COc1ccc(C(C#N)NNC(=O)c2ccccc2O)cc1OC` (stereo not drawn): the TGI is over 100 µM.
Take `O=c1[nH]n2c(=O)cc[nH]c2c1-c1nnns1`: the TGI was over 100 µM.
Same read-out and setting: the same measure for `N.N.N.O=[N+]([O-])[O-].O=[N+]([O-])[O-].O=[N+]([O-])[O-].O=[N+]([O-])[O-].[Co+3]`: over 100 µM; for `Cc1nnc(Nc2ccccc2)o1`: over 100 µM.

Another test has as its system SF-268 CNS. Put plainly: NCI tumour cell line growth inhibition, 48 h.
Take `NC(C(F)(F)F)(C(F)(F)F)P(=O)(Cc1ccccc1)Cc1ccccc1`: the TGI was over 100 µM.
As for `S=C(N/N=C\C=N/NC(=S)N1CCCCC1)N1CCCCC1`, the TGI is over 100 µM.
`CN1C(=O)C2C(=O)N(Cc3ccccc3)CC(=O)N2c2cccnc21` (stereo not drawn) came in with a TGI of over 100 µM.
Same read-out and setting: the same measure for `Cc1cc(N(CCC#N)CCC#N)ccc1/C=N/NC(=O)c1cc(Cl)ccc1O`: over 100 µM; for `Cc1ccc(C(=O)Nc2ccc(CP(=O)(O)O)cc2CP(=O)(O)O)cc1NC(=O)c1cccc(N)c1`: over 100 µM; for `CN(C)/N=N/c1nc2c(c(=O)n(C)c(=O)n2C)n1C`: over 100 µM.
Turning to `COc1ccccc1N/C(=C\C(=O)C(=O)NC12CC3CC(CC(C3)C1)C2)c1ccccc1`, the TGI was over 10 µM.
On the same count and under the same terms, under `Nc1cc(CO)cc(Nc2nc3ccc(Cl)cc3c3[nH]c4ccccc4c23)c1` stands 10.5 µM; under `CCN1CC2=C(NC(=S)NC2c2ccc(Cl)cc2)/C(=C/c2ccc(Cl)cc2)C1` (stereo not drawn), over 100 µM.
`CN1C(=O)N(c2ccccc2)C2(CCN(CC3COc4ccccc4O3)CC2)C1=O` (stereo not drawn): the TGI is over 100 µM.
`CCOC(=O)C1Cc2[nH]c3ccccc3c2C(C)C1C` (stereo not drawn) registered a TGI of 47.5 µM.
Still for that read-out and setting: the same measure for `NC(=O)N/N=C(\Cc1nc2ccc(Cl)cc2[nH]c1=O)C(=O)Nc1ccc(Cl)cc1Cl`: over 100 µM.
The same measure, in the same setting: the same measure for `O=c1nc(N2CCN(c3ccccc3)CC2)ccn1C1OC(CO)C(O)C1O` (stereo not drawn): over 100 µM.
